This note sets out measurements from patent US9273018B2, “Piperazine derivatives” (St. Mary's University, priority 2011, dated 2016).

What all share (format): cell-based
Assay [1] concerns HT29 colon cancer cells. Put plainly: Cytotoxicity of HT29 colon cancer cells (relative cell density). Conditions: Homo sapiens, HT-29, relative cell density as percent of control, FIG. 3, read-out: LD50 (the source's name).
Assay [2] relates to U87MG glioblastoma cancer cells. Kind of assay: Cytotoxicity of glioblastoma cancer cells (relative cell density). The settings on record: Homo sapiens, U-87 MG, relative cell density as percent of control, FIG. 1, read-out: LD50 (the source's name). Here is the method: U87MG glioblastoma cancer cells were cultured according to established protocols (Martinkova et al., Cytotoxicity of and DNA adduct formation by ellipicine in human U87MG glioblastoma cancer cells. Neuro Endocrinol Lett 30 (Suppl 1):60-6, 2009). Temozolomide was added to the cell culture media at increasing doses and the relative cell density, as a percent of control cells not exposed to temozolomide, was calculated. Temozolomide is one of the primary treatments for glioblastoma type cancers and dacarbazine is an antineoplastic chemotherapy used in the treatment of various cells.
To test the cytotoxic effect of 1-[(E)-2-(4-nitrophenyl)diazen-1-yl]-4-phenylpiperazine, 4-[(E)-2-(4-phenylpiperazin-1-yl)diazen-1-yl]benzonitrile, methyl 4-[(E)-2-(4-phenylpiperazin-1-yl)diazen-1-yl]benzoate, methyl 4-[(E)-2-[4-(4-chlorophenyl)piperazin-1-yl)diazen-1-yl]benzoate, 1-[(E)-2-(4-bromophenyl)diazen-1-yl]-4-[(3-methylphenyl)methyl]piperazine, 4-[(E)-2-{4-[(3-methylphenyl)methyl]piperazin-1-yl}diazen-1-yl]benzonitrile serial dilutions of the compounds were made and added to the cell culture media containing the U87MG glioblastoma cancer cells. The relative cell density, as a percent of control cells not exposed to temozolomide, dacarbazine or the experimental compounds, was calculated.

In assay [3] the test system is A549 lung cancer cells. Put plainly: Cytotoxicity of A549 lung cancer cells (relative cell density). Conditions: relative cell density as percent of control, FIG. 2. Here is the method: A549 lung cancer cells were cultured according to established protocols (Lieber M. et al., Int. J. Cancer 17: 62-70, 1976). Temozolomide and dacarbazine were separately added to the cell culture media at increasing doses and the relative cell density, as a percent of control cells not exposed to temozolomide or dacarbazine, was calculated.
To test the cytotoxic effect of 1-[(E)-2-(4-nitrophenyl)diazen-1-yl]-4-phenylpiperazine, methyl 4-[(E)-2-(4-phenylpiperazin-1-yl)diazen-1-yl]benzoate, 1-{4[(E)-2-[4-(3,4-dichlorophenyl)piperazin-1-yl]phenyl}ethan-1-one, 1-{4-[(E)-2-[4-pyridin-2-yl)piperazin-1-yl]diazen-1-yl]phenyl}ethan-1-one, serial dilutions of the compounds were made and added to the cell culture media containing the A549 lung cancer cells. The relative cell density, as a percent of control cells not exposed to temozolomide, dacarbazine or the experimental compounds, was calculated.

`Cc1ccc(/N=N/N2CCN(c3ccccc3)CC2)cc1` [Compound 7, 1-[(E)-2-(4-methylphenyl)diazen-1-yl]-4-phenylpiperazine]: in assay [1], the IC50 was found to be 9.6 µM.

With `CN(C)/N=N/c1[nH]cnc1C(N)=O` [dacarbazine, reference compound], the IC50 came out at 25.2 µM in assay [1] and 25 µM in assay [2]. In assay [3], this molecule gave an LD50 of 25.7 µM.

Consider `Cc1cccc(CN2CCN(/N=N/c3ccc(Br)cc3)CC2)c1` [Compound 70, 1-[(E)-2-(4-bromophenyl)diazen-1-yl]-4-[(3-methylphenyl)methyl]piperazine], for which the IC50 in assay [1] is 17.6 µM; in assay [2] it was 12.2 µM.

As to `N#Cc1ccc(/N=N/N2CCN(c3ccccc3)CC2)cc1` [Compound 2, 4-[(E)-2-(4-phenylpiperazin-1-yl)diazen-1-yl]benzonitrile], the results for the IC50 in assay [1] and in assay [2] were 2.6 µM and 12.4 µM, respectively.

Consider `CC(=O)c1ccc(/N=N/N2CCN(c3ccccn3)CC2)cc1` [Compound 45], for which the IC50 in assay [1] is 11.2 µM. The same molecule displayed an LD50 in assay [3] of 15.6 µM.

Regarding `COC(=O)c1ccc(/N=N/N2CCN(c3ccc(Cl)cc3)CC2)cc1` [Compound 12, methyl 4-[(E)-2-[4-(4-chlorophenyl)piperazin-1-yl)diazen-1-yl]benzoate], in assay [2], the IC50 was 22.2 µM.

`Cn1nnc2c(C(N)=O)ncn2c1=O` [Temozolomide, reference compound]: the IC50 in assay [2] came to 25.5 µM. The same molecule gave an LD50 in assay [3] of 60.4 µM.

For the molecule `CC(=O)c1ccc(/N=N/N2CCN(c3ccc(Cl)c(Cl)c3)CC2)cc1` [Compound 22], the IC50 in assay [1] stood at 3.4 µM. This molecule also gave an LD50 in assay [3] of 3.4 µM.

As for `O=[N+]([O-])c1ccc(/N=N/N2CCN(c3ccccc3)CC2)cc1` [Compound 1, 1-[(E)-2-(4-nitrophenyl)diazen-1-yl]-4-phenylpiperazine], the IC50 worked out at 2.5 µM in assay [1] and 4.36 µM in assay [2]. The molecule further registered an LD50 in assay [3] of 5.27 µM.

As for `N#Cc1ccccc1N1CCN(/N=N/c2ccc(Br)cc2)CC1` [Compound 49, 2-{4-[(E)-2-(4-bromophenyl)diazen-1-yl]piperazin-1-yl}benzonitrile], the IC50 in assay [1] was determined as 5.2 µM.

As to `Cc1cccc(CN2CCN(/N=N/c3ccc(C#N)cc3)CC2)c1` [Compound 68, 4-[(E)-2-{4-[(3-methylphenyl)methyl]piperazin-1-yl}diazen-1-yl]benzonitrile], the IC50 in assay [1] came to 13.5 µM; in assay [2], 14 µM.

On to `COC(=O)c1ccc(/N=N/N2CCN(c3ccccc3)CC2)cc1` [Compound 3, Methyl 4-[(E)-2-(4-phenylpiperazin-1-yl)diazen-1-yl]benzoate], for which the IC50 was 3.9 µM in assay [1] and 16.2 µM in assay [2]. In assay [3], this molecule registered an LD50 of 25.5 µM.

For `COC(=O)c1ccc(/N=N/N2CCN(c3ccccn3)CC2)cc1` [Compound 42, methyl 4-[(E)-2-[4-(pyridin-2-yl)piperazin-1-yl]diazen-1-yl]benzoate], the IC50 in assay [1] was found to be 14.6 µM.
